Values quoted from earlier work in patent US20240115670A1, “FIBROBLAST ACTIVATION PROTEIN MODULATION TO ALTER IMMUNE CELL MIGRATION AND TUMOR INFILTRATION” (Georgetown University, priority 2021, published 2024).

How the values were obtained:
[1] = tested on: advanced metastatic colorectal cancer; settings: cited from earlier work
[2] = tested on: myeloma cells; settings: coculture with osteoclasts; cited from earlier work
[3] = tested on: myeloma; settings: in vivo; cited from earlier work
[4] = tested on: syngeneic tumors derived from fibrosarcoma, lymphoma, melanoma, mastocytoma, rhabdomyosarcoma and bladder cancer cell lines; settings: oral administration; cited from earlier work
[5] = tested on: colon carcinoma; settings: combination with oxaliplatin; cited from earlier work
[6] = tested on: primitive hematopoietic progenitor cells; settings: by increasing G-CSF, IL-6, and IL-11 from bone marrow stromal cells; cited from earlier work
[7] = target: serum DPPIV (Homo sapiens, UniProt P27487); settings: cited from earlier work
[8] = tested on: stage IV melanoma; settings: cited from earlier work
[9] = tested on: advanced non-small cell lung cancer; settings: cited from earlier work
[10] = tested on: CAF; settings: via downregulation of FAP; cited from earlier work
[11] = tested on: gastric cancer; settings: via downregulation of FAP; cited from earlier work
[12] = tested on: advanced or metastatic FAP+ cancer; settings: cited from earlier work
[13] = tested on: metastatic colorectal cancer; settings: cited from earlier work

Chain of serum DPPIV (P27487 39-766 limits assumed): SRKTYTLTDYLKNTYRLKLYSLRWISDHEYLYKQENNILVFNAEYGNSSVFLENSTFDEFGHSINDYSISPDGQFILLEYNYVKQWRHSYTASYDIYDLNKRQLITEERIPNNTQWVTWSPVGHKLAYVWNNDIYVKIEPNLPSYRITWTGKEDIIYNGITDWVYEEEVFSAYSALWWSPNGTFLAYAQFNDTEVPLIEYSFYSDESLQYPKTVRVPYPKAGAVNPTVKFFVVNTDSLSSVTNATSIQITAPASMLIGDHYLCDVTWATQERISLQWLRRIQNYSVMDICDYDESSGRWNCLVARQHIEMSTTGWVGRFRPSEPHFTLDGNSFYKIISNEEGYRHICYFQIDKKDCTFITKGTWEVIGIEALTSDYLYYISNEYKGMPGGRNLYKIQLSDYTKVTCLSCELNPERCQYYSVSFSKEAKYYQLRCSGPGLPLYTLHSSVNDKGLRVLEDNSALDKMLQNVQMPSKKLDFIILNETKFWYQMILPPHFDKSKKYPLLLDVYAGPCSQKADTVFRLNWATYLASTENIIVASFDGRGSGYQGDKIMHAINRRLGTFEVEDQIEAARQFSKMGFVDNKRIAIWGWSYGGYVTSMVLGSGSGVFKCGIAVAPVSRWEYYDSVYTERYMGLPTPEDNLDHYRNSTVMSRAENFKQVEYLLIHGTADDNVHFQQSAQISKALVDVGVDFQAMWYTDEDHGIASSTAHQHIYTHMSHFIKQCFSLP

Molecule: CC(C)[C@H](N)C(=O)N1CCC[C@H]1B(O)O [talabostat, Talabostat]
- Grade 5 adverse events ([1]; single agent trial, acute renal failure due to cytokine storm): one
- clinical responses ([1]; single agent): no complete or partial responses
- myeloma cell proliferation [2]: concentration-dependent decreased
- osteoclast activity, bone resorption and tumor burden [3]: reduced
- growth of syngeneic tumors [4]: slowed growth
- efficacy of oxaliplatin [5]: enhanced
- growth of primitive hematopoietic progenitor cells [6]: promoted growth
- serum DPPIV inhibition ([7]; dose of 600 ug/m2, at 24 hours): 85%
- dose-limiting toxicities ([7]; phase I, pediatric solid tumors): No dose-limiting toxicities were observed
- patients discontinuing talabostat due to side effects ([8]; in vivo): 18%
- patients with grade 3 or 4 adverse events ([8]; in vivo): 56%
- patients with partial response ([8]; with cisplatin, second-line): 8.1%
- patients with stable disease ([8]; with cisplatin, second-line): 62.5%
- patients with adverse events resulting in death ([9]; none considered definitely or probably related to talabostat): eight
- durable complete responses ([9]; with docetaxel): two
- overall response rate ([9]; with docetaxel): 9.1%
- partial responses ([9]; with docetaxel): three
- stable disease rate ([9]; with docetaxel): 54%

Molecule: polyphyllin
- CAF proliferation in vitro [10]: decreased
- tumor growth in vivo [11]: decreased

Molecule: sibrotuzumab: humanized monoclonal anti-FAP antibody
- dose limiting toxicity ([12]; in vivo): one
- clinical responses ([12]; phase I): no clinical responses
- patients with stable disease ([12]; phase I): 2/26
- tolerability ([13]; in vivo): well tolerated
- clinical activity ([13]; phase II, trial suspended): lack of clinical activity
